Data: US12629371B2, “Compositions and methods for inhibiting kinases” (Inhibikase Therapeutics, Inc., priority 2016, dated 2026)
Each block holds one compound with its values, some of them ahead of it.

Assays:
[1] = system: mice treated with MPTP; conditions: known ATK inhibitors, background statement; cited from earlier work
[2] = system: animal models of Parkinson's Disease; conditions: literature (J. Neurosci. 31(1); Scientific Reports 4:4874); cited from earlier work
[3] = molecular target: ARG/Abl2 (Homo sapiens, UniProt P42684); assay: Inhibition profile at 500 nM: ARG/Abl2; format: biochemical; conditions: 500 nM test compound; Table 1
Procedure: (§1) Then enzyme substrate is added as 10 μl of 2.5×FAM-labeled peptide+ATP solution to each well of the 384-well assay plate The reaction is allowed to proceed at 28° C. and quenched with the addition of 25 μl of stop buffer. The release of fluorescent FAM is quantitated as Percent inhibition=(max−conversion)/(max−min)*100.sp; “max” stands for DMSO control; “min” stands for low control. Convert conversion values to inhibition values. Percent inhibition=(max−conversion)/(max−min)*100. “max” stands for DMSO control; “min” stands for low control.

[4] = molecular target: ABL (Homo sapiens, UniProt P00519); assay: Inhibition profile at 500 nM: ABL / Abl1; format: biochemical; conditions: 500 nM test compound; Table 1
Procedure: as §1

[5] = molecular target: PDGFRa (Homo sapiens, UniProt P16234); assay: Inhibition profile at 500 nM: PDGFRa; format: biochemical; conditions: 500 nM test compound; Table 2; read-out: Percent inhibition PDGFRa
Procedure: as §1

[6] = Pharmacokinetic parameters in Sprague-Dawley rats; set-up: AUC(0-t): concentration or dose not given beside the values; conditions: rat, in vivo
Procedure: Various pharmacokinetic parameters of the compounds described herein were measured in Sprague-Dawley rats.

[7] = Human liver microsome stability; format: in vitro ADME; conditions: human liver microsomes; read-out: Human liver microsome t1/2
[8] = system: mice treated with MPTP; assay: Mouse MPTP neurotoxicity model; format: in vivo; conditions: for dopamine levels (protection of dopamine-secreting neurons): HPLC-ECD, FIG. 4; for pole test latency: day 14, FIG. 3, control about 5 seconds, MPTP about 30
Procedure: Certain compounds of the present invention were evaluated using the MPTP neurotoxicity model. MPTP causes oxidative stress, which in turn causes c-Abl1 and/or c-Abl2 phosphorylation in the SNpc of mice treated with MPTP. MPTP administration according to this model produces a reliable, irreversible loss of DA neurons 7 days after the last injection, similar to that observed in PD. MPTP causes greater loss of DA neurons in SNpc and degeneration of DA nerve terminals in the caudate putamen. Many of the cell death signaling events observed in PD postmortem tissue are present in the MPTP model including oxidative stress, nitrosative stress, c-Abl activation, Parkin inactivation and PARIS and AIMP2 elevation and PARP activation. […] Because the model is relatively rapid, this model was used to assess dosing for future studies, and as a preliminary measure of efficacy.
The study design is depicted in FIG. 1. […] Wild type mice (n=5 per group) were divided into 4 treatment groups as follows: saline, MPTP, Drug and MPTP+Drug. Saline and MPTP groups were pre-treated with drug vehicle (unbuffered water) (20 animals total). Drug and MPTP+Drug groups received the test compounds for 6 days administered by oral gavage daily. On the seventh day, the saline and Drug groups received four intra-peritoneal (i.p.) injections of saline at 2 h intervals. The MPTP and MPTP+Drug groups received four intraperitoneal (i.p.) injections of MPTP·HCl (20 mg/kg free base) at 2 hr intervals. After the MPTP injection day, mice were treated for an additional 6 days with saline or an ATK inhibitor of the present invention. Mice in the saline and MPTP only groups received saline vehicle while the Drug and MPTP+Drug groups received an additional week of drug treatment. On the 14th day, mice were given a pole test, then sacrificed. Brain samples were processed for analysis of biogenic amine concentrations, including dopamine (DA), by high-performance liquid chromatography with electrochemical detection (HPLC-ECD). Loss of DA and its metabolites in the striatum is a consistently reliable indication of loss of DA neurons in the SNpc.

[9] = Serum protein binding; format: in vitro ADME; conditions: rat
[10] = system: A53T synuclein mice; assay: Functional rescue in mutated alpha-synuclein model; format: in vivo; conditions: A53T mutant alpha-synuclein mice
Excerpt: The A53T mutant of alpha-synuclein is a clinically identified mutation that leads to hyper aggregation of alpha-synuclein in mice, and recapitulates the symptoms of Parkinson's disease such as dopaminergic neuron loss.
This effect is believed to be due to the compound blocking formation of the toxic form of A53T-alpha-synuclein by inhibiting c-Abl.

[11] = system: Mice injected with pre-formed alpha-synuclein fibrils; assay: Functional rescue in alpha-synuclein fibril model; format: in vivo
Excerpt: Injection of pre-formed alpha-synuclein fibrils is known to induce Parkinson's-like disease in mice. […] This effect is believes to be due to the compound blocking the formation of toxic pre-formed-fibril alpha synuclein by inhibiting c-Abl.

[12] = molecular target: c-Abl2 (Homo sapiens, UniProt P42684); assay: Inhibition of Abelson protein kinase c-Abl2 (FAM-labeled peptide assay, IC50); format: biochemical
Procedure: (§2) Mix the compounds in intermediate plate for 10 min on shaker. For the assay of enzyme inhibitions, 5 μl of each well from the intermediate plate is transferred to a 384-well plate in duplicates, 10. […] Then enzyme substrate is added as 10 μl of 2.5×FAM-labeled peptide+ATP solution to each well of the 384-well assay plate The reaction is allowed to proceed at 28° C. and quenched with the addition of 25 μl of stop buffer. The release of fluorescent FAM is quantitated as Percent inhibition=(max−conversion)/(max−min)*100. “max” stands for DMSO control; “min” stands for low control. Data are fit in XLFit excel add-in version 4.3.1 to obtain IC50 values. Equation used is: Y=Bottom+(Top−Bottom)/(1+(IC50/X)^HillSlope).

[13] = molecular target: c-Abl1 (Homo sapiens, UniProt P00519); assay: Inhibition of Abelson protein kinase c-Abl1 (FAM-labeled peptide assay, IC50); format: biochemical
Procedure: as §2

Sequence of PDGFRa (P16234 24-1089): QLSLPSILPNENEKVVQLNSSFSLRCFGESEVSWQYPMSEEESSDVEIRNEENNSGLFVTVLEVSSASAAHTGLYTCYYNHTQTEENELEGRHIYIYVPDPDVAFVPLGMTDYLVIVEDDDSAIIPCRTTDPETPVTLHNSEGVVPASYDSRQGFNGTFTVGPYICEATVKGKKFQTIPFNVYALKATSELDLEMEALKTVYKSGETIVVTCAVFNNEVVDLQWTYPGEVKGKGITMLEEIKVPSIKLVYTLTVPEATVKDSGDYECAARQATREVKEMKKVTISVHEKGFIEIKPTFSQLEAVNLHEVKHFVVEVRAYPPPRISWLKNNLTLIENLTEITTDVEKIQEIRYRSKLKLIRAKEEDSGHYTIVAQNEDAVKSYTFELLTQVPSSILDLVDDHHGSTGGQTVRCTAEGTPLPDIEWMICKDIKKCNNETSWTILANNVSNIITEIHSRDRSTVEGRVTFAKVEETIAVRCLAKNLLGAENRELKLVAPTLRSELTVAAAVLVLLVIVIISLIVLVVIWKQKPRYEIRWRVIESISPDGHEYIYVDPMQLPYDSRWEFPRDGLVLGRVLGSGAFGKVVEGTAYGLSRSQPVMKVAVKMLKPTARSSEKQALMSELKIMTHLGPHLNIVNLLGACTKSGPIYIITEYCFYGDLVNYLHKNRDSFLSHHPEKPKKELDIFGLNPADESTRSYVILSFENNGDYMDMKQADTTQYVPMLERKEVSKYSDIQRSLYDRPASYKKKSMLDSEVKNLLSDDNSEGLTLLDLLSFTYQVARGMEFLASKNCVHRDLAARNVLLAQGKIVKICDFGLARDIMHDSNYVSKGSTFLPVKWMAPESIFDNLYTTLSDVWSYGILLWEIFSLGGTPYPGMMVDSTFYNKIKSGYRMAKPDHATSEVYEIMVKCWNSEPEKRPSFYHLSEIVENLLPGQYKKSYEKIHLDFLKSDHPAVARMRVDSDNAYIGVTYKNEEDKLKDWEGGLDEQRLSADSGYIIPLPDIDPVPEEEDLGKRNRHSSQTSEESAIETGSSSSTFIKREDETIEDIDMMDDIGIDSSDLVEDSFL
Sequence of c-Abl1 (P00519 whole entry): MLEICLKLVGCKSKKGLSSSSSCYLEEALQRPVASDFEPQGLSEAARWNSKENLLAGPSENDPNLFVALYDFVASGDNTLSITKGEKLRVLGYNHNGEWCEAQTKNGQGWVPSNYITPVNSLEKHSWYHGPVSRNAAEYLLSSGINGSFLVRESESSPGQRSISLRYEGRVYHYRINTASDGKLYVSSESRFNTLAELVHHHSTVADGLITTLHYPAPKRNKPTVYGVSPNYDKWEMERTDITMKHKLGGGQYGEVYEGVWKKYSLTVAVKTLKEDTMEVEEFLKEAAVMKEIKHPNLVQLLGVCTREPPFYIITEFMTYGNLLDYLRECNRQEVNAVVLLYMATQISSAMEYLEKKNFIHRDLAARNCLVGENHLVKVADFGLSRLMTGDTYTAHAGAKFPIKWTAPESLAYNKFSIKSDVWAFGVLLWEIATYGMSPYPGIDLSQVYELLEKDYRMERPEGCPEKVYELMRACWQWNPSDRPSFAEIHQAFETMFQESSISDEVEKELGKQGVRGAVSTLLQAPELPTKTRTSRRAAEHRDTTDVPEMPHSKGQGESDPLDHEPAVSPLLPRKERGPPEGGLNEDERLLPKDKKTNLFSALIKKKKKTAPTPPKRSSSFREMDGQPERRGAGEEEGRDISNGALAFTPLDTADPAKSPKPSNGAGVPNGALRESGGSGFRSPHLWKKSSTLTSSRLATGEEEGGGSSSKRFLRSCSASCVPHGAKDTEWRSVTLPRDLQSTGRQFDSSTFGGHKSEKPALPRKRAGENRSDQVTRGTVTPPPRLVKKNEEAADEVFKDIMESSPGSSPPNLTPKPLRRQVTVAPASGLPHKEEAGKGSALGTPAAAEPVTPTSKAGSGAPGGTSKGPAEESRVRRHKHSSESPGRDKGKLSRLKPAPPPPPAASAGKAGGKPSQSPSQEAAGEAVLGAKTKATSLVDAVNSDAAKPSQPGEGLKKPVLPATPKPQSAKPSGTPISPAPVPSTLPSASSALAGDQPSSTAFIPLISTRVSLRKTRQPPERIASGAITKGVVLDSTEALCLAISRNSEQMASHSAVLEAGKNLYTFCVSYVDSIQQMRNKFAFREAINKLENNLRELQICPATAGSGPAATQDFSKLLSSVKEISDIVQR
Sequence of c-Abl2 (P42684 whole entry): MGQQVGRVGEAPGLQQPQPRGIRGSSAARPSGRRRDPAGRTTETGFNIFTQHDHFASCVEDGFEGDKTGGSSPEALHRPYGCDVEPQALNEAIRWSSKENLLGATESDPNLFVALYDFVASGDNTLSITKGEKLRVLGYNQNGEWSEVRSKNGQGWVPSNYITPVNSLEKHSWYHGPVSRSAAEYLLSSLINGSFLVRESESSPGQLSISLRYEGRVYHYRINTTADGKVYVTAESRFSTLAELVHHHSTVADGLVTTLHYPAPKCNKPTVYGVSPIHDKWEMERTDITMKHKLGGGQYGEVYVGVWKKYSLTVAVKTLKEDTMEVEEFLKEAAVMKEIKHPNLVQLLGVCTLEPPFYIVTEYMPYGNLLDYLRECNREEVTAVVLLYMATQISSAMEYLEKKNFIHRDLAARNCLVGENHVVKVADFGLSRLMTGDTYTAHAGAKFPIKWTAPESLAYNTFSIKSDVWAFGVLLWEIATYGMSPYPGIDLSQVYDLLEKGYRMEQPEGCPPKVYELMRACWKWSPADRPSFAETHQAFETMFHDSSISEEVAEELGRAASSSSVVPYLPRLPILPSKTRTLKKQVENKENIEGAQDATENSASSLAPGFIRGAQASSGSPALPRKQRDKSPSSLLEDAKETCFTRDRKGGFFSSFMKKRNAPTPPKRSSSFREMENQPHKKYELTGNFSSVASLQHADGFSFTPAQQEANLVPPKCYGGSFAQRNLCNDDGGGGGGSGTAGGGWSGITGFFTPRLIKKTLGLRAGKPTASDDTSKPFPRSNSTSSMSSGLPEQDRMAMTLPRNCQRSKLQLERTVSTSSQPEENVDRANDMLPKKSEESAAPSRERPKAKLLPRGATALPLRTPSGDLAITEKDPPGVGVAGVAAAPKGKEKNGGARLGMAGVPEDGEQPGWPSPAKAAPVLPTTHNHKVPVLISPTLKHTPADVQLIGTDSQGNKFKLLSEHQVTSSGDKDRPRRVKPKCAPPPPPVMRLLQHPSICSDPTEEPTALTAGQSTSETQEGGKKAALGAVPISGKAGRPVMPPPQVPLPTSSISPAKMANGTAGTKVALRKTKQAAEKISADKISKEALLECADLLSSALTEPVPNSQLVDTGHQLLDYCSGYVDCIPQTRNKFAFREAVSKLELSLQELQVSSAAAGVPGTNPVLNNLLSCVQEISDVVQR
Sequence of ABL (P00519 whole entry): as the sequence (P00519 whole entry) above
Sequence of ARG/Abl2 (P42684 whole entry): as the sequence (P42684 whole entry) above

Compound: Cc1cn(-c2cc(NC(=O)c3ccc(C)c(Nc4nccc(-c5cccnc5)n4)c3)cc(C(F)(F)F)c2)cn1 [nilotinib]
- neuroprotection in the acute MPTP-induced model of PD [1]: provide neuroprotection
- effectiveness in animal models of Parkinson's Disease [2]: appear effective

Compound: Cc1ccc(NC(=O)c2ccc(CN3CCN(C)CC3)cc2)cc1Nc1nccc(-c2cccnc2)n1 [imatinib, reference compound]
- effectiveness in animal models of Parkinson's Disease [2]: appear effective
- AUC(0-t) [6]: 2730 ng·h/mL
- Cmax [6]: 241 ng/mL
- Tmax [6]: 4 h
- bioavailability [6]: ~53%

Compound: Cc1cc(-c2cncc(-c3ccnc(Nc4cc(NC(=O)c5ccc(CN6CCN(C)CC6)cc5)ccc4C)n3)c2)sn1 [Compound 8190]
- inhibition at 0.5 µM [5]: 100%

Compound: Cc1cnc(-c2cncc(-c3ccnc(Nc4cc(NC(=O)c5ccc(CN6CCN(C)CC6)cc5)ccc4C)n3)c2)s1 [Compound 8280]
- inhibition at 0.5 µM [5]: 100%

Compound: Cc1ccnc(-c2cncc(-c3ccnc(Nc4cc(NC(=O)c5ccc(CN6CCN(C)CC6)cc5)ccc4C)n3)c2)c1 [Compound 830]
- inhibition at 0.5 µM [5]: 100%
- AUC(0-t) [6]: 3720 ± 1090 ng·h/mL
- Cmax [6]: 465 ± 115 ng/mL
- Tmax [6]: 4 h
- Vd [6]: 6.3 ± 1.1 L/kg
- bioavailability [6]: 47%
- clearance [6]: 21.7 mL/min/kg
- half-life [6]: 3.6 h
- half-life [7]: 0.326 h

Compound: Cc1ccc(NC(=O)c2ccc(CN3CCN(C)CC3)cc2)cc1Nc1nccc(-c2cncc(-c3oncc3C)c2)n1 [Compound 809]
- AUC(0-t) [6]: 1060 ng·h/mL
- Cmax [6]: 170 ng/mL
- Tmax [6]: 4 h
- Vd [6]: 7.2 L/kg
- bioavailability [6]: 24%
- clearance [6]: 45 mL/min/kg
- half-life [6]: 2.2 h
- dopamine levels (protection of dopamine-secreting neurons) [8]: protected dopamine-secreting neurons from degeneration
- pole test latency [8]: recovered to a near-normal latency time
- half-life [7]: 0.364 h
- dopaminergic neuron loss in A53T synuclein mice [10]: fail to display the characteristics of dopaminergic neuron loss
- Parkinson's-like disease after pre-formed alpha-synuclein fibrils [11]: fail to exhibit Parkinson's like disease
- fraction unbound [9]: 0.143

Compound: Cc1ccc(NC(=O)c2ccc(CN3CCN(C)CC3)cc2)cc1Nc1nccc(-c2cncc(-c3cnns3)c2)n1 [Compound 8230]
- IC50 [12]: > 1000 nM
- IC50 [13]: > 1000 nM

Compound: Cc1ccc(NC(=O)c2ccc(CN3CCN(C)CC3)cc2)cc1Nc1nccc(-c2cncc(-c3nncs3)c2)n1 [Compound 8250]
- inhibition at 0.5 µM [5]: 100%

Compound: Cc1ccc(NC(=O)c2ccc(CN3CCN(C)CC3)cc2)cc1Nc1nccc(-c2cncc(-c3ccns3)c2)n1 [Compound 8170]
- inhibition at 0.5 µM [5]: 100%

Second part, led by results:

- Percent inhibition ARG/Abl2 [3]: 62%
- Percent inhibition ABL [4]: 79%
Compound: Cc1ccc(NC(=O)c2ccc(CN3CCN(C)CC3)cc2)cc1Nc1nccc(-c2cncc(-n3cccn3)c2)n1 [Compound 303]

- inhibition at 0.5 µM [5]: 100%
Compound: Cc1ccc(NC(=O)c2ccc(CN3CCNCC3)cc2)cc1Nc1nccc(-c2cncc(-c3ccccn3)c2)n1 [Compound 880]

- inhibition at 0.5 µM [5]: 100%
Compound: Cc1ccc(NC(=O)c2ccc(CN3CCNCC3)cc2)cc1Nc1nccc(-c2cncc(-c3ccncc3)c2)n1 [Compound 870]

- inhibition at 0.5 µM [5]: 100%
- AUC(0-t) [6]: 3180 ± 930 ng·h/mL
- Cmax [6]: 416 ± 84.5 ng/mL
- Tmax [6]: 4 h
- Vd [6]: 3.6 ± 1.8 L/kg
- bioavailability [6]: 33%
- clearance [6]: 21.7 mL/min/kg
- half-life [6]: 2.6 h
- half-life [7]: 0.408 h
Compound: Cc1ccc(NC(=O)c2ccc(CN3CCN(C)CC3)cc2)cc1Nc1nccc(-c2cncc(-c3ccn(C)n3)c2)n1 [Compound 832]
- dopamine levels (protection of dopamine-secreting neurons) [8]: protected dopamine-secreting neurons from degeneration
- pole test latency [8]: recovered to a near-normal latency time

- AUC(0-t) [6]: 1760 ± 268 ng·h/mL
- Cmax [6]: 210 ± 31 ng/mL
- Tmax [6]: 5.3 h
- Vd [6]: 7.8 ± 0.7 L/kg
- bioavailability [6]: 46%
- clearance [6]: 43.3 mL/min/kg
- half-life [6]: 3.3 h
- half-life [7]: 0.348 h
Compound: Cc1ccc(NC(=O)c2ccc(CN3CCN(C)CC3)cc2)cc1Nc1nccc(-c2cncc(-c3nccs3)c2)n1 [Compound 8270]
- dopamine levels (protection of dopamine-secreting neurons) [8]: protected dopamine-secreting neurons from degeneration
- pole test latency [8]: not statistically significant

- AUC(0-t) [6]: 1650 ± 1080 ng·h/mL
- Cmax [6]: 225 ± 83.8 ng/mL
- Tmax [6]: 5.3 ± 1.2 h
- Vd [6]: 6.5 ± 0.96 L/kg
- bioavailability [6]: 32%
- clearance [6]: 33.3 mL/min/kg
- half-life [6]: 3.1 h
- half-life [7]: 0.292 h
- fraction unbound [9]: 0.141
Compound: Cc1cc(-c2cncc(-c3ccnc(Nc4cc(NC(=O)c5ccc(CN6CCN(C)CC6)cc5)ccc4C)n3)c2)on1 [Compound 207]
- dopamine levels (protection of dopamine-secreting neurons) [8]: protected dopamine-secreting neurons from degeneration
- pole test latency [8]: recovered to a near-normal latency time

- IC50 [12]: > 1000 nM
- IC50 [13]: > 1000 nM
Compound: Cc1ccc(NC(=O)c2ccc(CN3CCN(C)CC3)cc2)cc1Nc1nccc(-c2cncc(-c3snnc3C)c2)n1 [Compound 8240]

- inhibition at 0.5 µM [5]: 100%
Compound: Cc1ccc(NC(=O)c2ccc(CN3CCN(C)CC3)cc2)cc1Nc1nccc(-c2cncc(-c3ccnn3C)c2)n1 [Compound 831]

- inhibition at 0.5 µM [5]: 100%
Compound: Cc1nnc(-c2cncc(-c3ccnc(Nc4cc(NC(=O)c5ccc(CN6CCN(C)CC6)cc5)ccc4C)n3)c2)s1 [Compound 8260]

- inhibition at 0.5 µM [5]: 100%
Compound: Cc1csc(-c2cncc(-c3ccnc(Nc4cc(NC(=O)c5ccc(CN6CCN(C)CC6)cc5)ccc4C)n3)c2)n1 [Compound 8290]
